# Tests used:
# Assay type in all cases: functional
# Staphylococcus aureus [1] = experiment: Antibacterial activity methicillin-resistant Staphylococcus aureus P4620 assessed as inhibition of bacterial growth by microdilution broth method
# Staphylococcus aureus [2] = experiment: Antibacterial activity methicillin-resistant Staphylococcus aureus B10760 assessed as inhibition of bacterial growth by microdilution broth method
# Staphylococcus aureus [3] = experiment: Antibacterial activity methicillin-resistant Staphylococcus aureus P4627 assessed as inhibition of bacterial growth by microdilution broth method
# Staphylococcus aureus [4] = experiment: Antibacterial activity methicillin-resistant Staphylococcus aureus ST3151 assessed as inhibition of bacterial growth by microdilution broth method
# Staphylococcus aureus [5] = experiment: Antibacterial activity methicillin-resistant Staphylococcus aureus P4423 assessed as inhibition of bacterial growth by microdilution broth method
# Bacillus anthracis = experiment: Antibacterial activity Bacillus anthracis Sterne 34F2 assessed as inhibition of bacterial growth by CLSI based microbroth dilution assay
# Staphylococcus aureus [6] = experiment: Antibacterial activity methicillin-resistant Staphylococcus aureus USA300 assessed as inhibition of bacterial growth by CLSI based microbroth dilution assay
# Enterococcus faecalis = experiment: Antibacterial activity Enterococcus faecalis ATCC 33186 assessed as inhibition of bacterial growth by CLSI based microbroth dilution assay
# Staphylococcus aureus [7] = experiment: Antibacterial activity Staphylococcus aureus ATCC 6538 assessed as inhibition of bacterial growth incubated for 24 hrs by broth microdilution method
# Listeria monocytogenes = experiment: Antibacterial activity Listeria monocytogenes ATCC 7644 assessed as inhibition of bacterial growth incubated for 24 hrs by broth microdilution method
# Staphylococcus aureus [8] = experiment: Antibacterial activity Staphylococcus aureus ATCC 588 assessed as inhibition of bacterial growth incubated for 24 hrs by broth microdilution method
compound,measurement,setting,value
O=C(/C=C/c1ccc(O)cc1)c1ccc2c(c1O)CN(Cc1cc(C(F)(F)F)ccc1Cl)CO2,MIC,Staphylococcus aureus [1],25 µg/mL
same,MIC,Staphylococcus aureus [2],25 µg/mL
same,MIC,Staphylococcus aureus [3],25 µg/mL
same,MIC,Staphylococcus aureus [4],25 µg/mL
same,MIC,Staphylococcus aureus [5],25 µg/mL
Cc1cc(C(=O)CC(Sc2ccc(Cl)cc2)c2ccc(Cl)cc2)ccc1O (stereo unspecified),MIC,Bacillus anthracis,3.12 µg/mL
same,MIC,Staphylococcus aureus [6],0.78 µg/mL
same,MIC,Enterococcus faecalis,1.56 µg/mL
O=C(CCc1ccc(O)cc1)c1c(O)cc(O)cc1O [PHLORETIN],MIC,Staphylococcus aureus [7],7.81 µg/mL
same,MIC,Listeria monocytogenes,62.5 µg/mL
same,MIC,Staphylococcus aureus [8],7.81 µg/mL
